Experimental findings from the Kinase Knowledgebase extract (Sharma et al. 2016) are described below.

In experiment [1] the target is PIK3CD (Human) (UniProt O00329). Put plainly: Cell-Based Assay. To be noted: rat-1.
In experiment [2] the target is PIK3CG (human) (UniProt P48736). Put plainly: Cell-Based Assay. To be noted: u937.
Experiment [3] concerns the target PIK3CA (human) (UniProt P42336). Description: Cell-Based Assay. To be noted: rat-1.
In experiment [4] the target is PIK3CD (Human) (UniProt O00329). Put plainly: Enzyme Assay.
Experiment [5] has as its target PIK3CG (human) (UniProt P48736). Description: Enzyme Assay.
For experiment [6], the target named is PIK3CA (human) (UniProt P42336). Put plainly: Enzyme Assay.
Sequence of PIK3CA (human) (P42336 whole entry, looked up): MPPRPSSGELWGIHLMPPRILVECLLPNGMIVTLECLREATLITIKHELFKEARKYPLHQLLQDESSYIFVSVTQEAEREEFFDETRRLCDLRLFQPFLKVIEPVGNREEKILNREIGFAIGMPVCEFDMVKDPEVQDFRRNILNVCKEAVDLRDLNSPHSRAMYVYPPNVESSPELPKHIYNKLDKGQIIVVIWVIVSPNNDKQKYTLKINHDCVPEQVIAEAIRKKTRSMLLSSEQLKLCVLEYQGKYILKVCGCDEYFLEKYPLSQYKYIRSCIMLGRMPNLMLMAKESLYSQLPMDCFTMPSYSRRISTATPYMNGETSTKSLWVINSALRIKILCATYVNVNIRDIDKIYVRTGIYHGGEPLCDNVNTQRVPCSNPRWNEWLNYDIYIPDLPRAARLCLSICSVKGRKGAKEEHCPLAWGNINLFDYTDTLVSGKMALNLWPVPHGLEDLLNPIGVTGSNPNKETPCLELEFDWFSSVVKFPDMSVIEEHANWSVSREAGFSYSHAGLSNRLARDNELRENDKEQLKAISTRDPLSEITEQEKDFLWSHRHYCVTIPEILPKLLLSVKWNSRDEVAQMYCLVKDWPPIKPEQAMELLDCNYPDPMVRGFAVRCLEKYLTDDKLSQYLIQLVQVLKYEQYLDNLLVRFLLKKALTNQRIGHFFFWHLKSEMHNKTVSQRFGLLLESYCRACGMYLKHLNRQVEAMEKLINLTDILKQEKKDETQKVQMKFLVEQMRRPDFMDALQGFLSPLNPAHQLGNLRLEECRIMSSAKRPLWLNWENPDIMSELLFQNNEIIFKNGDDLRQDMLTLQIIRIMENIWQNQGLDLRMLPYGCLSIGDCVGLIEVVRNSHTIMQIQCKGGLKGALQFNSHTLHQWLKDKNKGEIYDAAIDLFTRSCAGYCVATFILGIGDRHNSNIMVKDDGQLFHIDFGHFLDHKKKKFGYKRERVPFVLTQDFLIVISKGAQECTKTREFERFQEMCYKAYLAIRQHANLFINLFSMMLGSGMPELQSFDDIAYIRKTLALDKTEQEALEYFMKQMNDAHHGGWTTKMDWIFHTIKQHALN

Sequence of PIK3CG (human) (P48736 whole entry, looked up): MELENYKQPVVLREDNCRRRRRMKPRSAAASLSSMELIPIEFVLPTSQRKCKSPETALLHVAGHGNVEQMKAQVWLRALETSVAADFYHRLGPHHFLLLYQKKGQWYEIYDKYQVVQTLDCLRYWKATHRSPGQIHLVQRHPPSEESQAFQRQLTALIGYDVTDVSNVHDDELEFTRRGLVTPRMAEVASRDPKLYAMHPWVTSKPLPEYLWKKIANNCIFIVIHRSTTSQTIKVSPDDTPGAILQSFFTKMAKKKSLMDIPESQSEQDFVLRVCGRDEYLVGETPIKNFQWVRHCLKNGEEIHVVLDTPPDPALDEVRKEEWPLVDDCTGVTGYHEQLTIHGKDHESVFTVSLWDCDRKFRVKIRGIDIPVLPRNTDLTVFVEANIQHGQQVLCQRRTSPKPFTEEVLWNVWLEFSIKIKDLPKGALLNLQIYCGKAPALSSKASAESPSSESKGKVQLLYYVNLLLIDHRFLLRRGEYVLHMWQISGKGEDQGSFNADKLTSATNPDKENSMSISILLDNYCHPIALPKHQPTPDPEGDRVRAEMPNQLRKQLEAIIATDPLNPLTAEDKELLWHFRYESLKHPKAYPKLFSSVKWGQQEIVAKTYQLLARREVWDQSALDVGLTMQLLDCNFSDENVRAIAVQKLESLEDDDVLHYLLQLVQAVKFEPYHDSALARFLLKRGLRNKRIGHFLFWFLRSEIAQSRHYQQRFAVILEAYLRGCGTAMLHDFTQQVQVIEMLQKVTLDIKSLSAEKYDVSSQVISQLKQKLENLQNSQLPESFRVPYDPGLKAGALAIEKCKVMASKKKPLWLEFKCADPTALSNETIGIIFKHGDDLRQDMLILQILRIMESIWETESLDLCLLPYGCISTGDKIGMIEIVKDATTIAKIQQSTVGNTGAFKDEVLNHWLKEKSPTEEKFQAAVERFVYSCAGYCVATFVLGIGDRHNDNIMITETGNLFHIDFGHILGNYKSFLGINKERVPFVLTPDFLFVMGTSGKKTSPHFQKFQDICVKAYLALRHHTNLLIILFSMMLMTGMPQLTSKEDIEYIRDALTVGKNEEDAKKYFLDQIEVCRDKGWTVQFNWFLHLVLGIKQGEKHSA
Sequence of PIK3CD (Human) (O00329 whole entry, looked up): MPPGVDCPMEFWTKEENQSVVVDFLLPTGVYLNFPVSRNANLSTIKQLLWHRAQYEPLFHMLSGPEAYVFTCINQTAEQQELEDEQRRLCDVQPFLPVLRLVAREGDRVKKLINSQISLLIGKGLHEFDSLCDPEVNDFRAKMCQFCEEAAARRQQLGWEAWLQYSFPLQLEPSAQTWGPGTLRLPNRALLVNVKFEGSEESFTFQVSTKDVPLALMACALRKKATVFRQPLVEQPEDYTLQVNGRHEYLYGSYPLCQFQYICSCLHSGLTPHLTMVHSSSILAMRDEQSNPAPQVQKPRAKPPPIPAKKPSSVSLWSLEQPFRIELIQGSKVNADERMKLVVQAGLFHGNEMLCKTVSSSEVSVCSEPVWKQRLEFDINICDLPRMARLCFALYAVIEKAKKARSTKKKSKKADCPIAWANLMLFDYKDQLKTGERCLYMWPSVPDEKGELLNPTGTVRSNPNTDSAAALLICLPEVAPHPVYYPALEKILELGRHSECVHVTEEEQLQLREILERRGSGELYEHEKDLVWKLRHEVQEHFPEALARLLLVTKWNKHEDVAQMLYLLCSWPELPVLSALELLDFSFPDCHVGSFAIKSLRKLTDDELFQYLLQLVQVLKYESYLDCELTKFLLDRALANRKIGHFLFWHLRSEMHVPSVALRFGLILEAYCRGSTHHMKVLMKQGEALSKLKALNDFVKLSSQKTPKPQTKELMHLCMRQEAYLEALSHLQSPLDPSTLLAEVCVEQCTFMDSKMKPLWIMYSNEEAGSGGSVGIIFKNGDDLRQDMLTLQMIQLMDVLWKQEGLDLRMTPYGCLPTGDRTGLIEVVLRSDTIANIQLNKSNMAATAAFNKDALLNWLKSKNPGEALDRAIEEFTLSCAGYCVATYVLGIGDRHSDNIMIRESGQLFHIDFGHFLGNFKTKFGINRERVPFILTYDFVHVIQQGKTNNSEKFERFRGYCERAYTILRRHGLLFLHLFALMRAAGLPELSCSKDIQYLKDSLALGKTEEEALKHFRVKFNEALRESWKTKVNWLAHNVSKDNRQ

For `Cn1cnc2c(N3CCC[C@H]3c3nc4cccc(Cl)c4c(=O)n3-c3ccccc3)nc(N)nc21`, the IC50 against PIK3CD (Human) [1] was 0.11 µM; against PIK3CG (human) [2], 0.216 µM; against PIK3CA (human) [3] it was over 10 µM; on PIK3CD (Human) [4], 0.052 µM; against PIK3CG (human) [5], 0.305 µM; at PIK3CA (human) [6], 3.7 µM.

With `Cc1nc(N)nc(N2C[C@@H](O)C[C@H]2c2nc3cccc(F)c3c(=O)n2-c2ccccc2)c1C#N`, the IC50 against PIK3CD (Human) [1] came out at 0.024 µM; against PIK3CG (human) [2], 0.114 µM; at PIK3CA (human) [3], 6.6 µM; on PIK3CD (Human) [4] it was 0.018 µM; against PIK3CG (human) [5] it was 0.09 µM; at PIK3CA (human) [6], 1.3 µM.

With `Nc1nc(N2CCC[C@H]2c2nc3cccc(C(F)(F)F)c3c(=O)n2-c2cncc(F)c2)c2nc[nH]c2n1`, the IC50 against PIK3CD (Human) [1] was 0.164 µM; at PIK3CG (human) [2] it was 0.324 µM; on PIK3CA (human) [3], over 10 µM; against PIK3CD (Human) [4] it was 0.16 µM; at PIK3CG (human) [5], 0.32 µM; against PIK3CA (human) [6], over 10 µM.

Regarding `Nc1nc(N2C[C@@H](O)C[C@H]2c2nc3cccc(C(F)(F)F)c3c(=O)n2-c2ccccc2)c2nccn2n1`, the IC50 was 0.09 µM on PIK3CD (Human) [1]; 0.031 µM against PIK3CG (human) [2]; over 10 µM against PIK3CA (human) [3]; 0.026 µM on PIK3CD (Human) [4]; 0.031 µM against PIK3CG (human) [5]; 3.3 µM against PIK3CA (human) [6].

Take `Cc1nc(N)nc(N2C[C@@H](F)C[C@H]2c2nc3cccc(C(F)(F)F)c3c(=O)n2-c2cccc(F)c2)c1C#N`: the half-maximal inhibitory concentration (IC50) against PIK3CD (Human) [1] was 0.014 µM; on PIK3CG (human) [2], 0.042 µM; at PIK3CA (human) [3], 3.41 µM; against PIK3CD (Human) [4], 0.014 µM; at PIK3CG (human) [5], 0.042 µM; against PIK3CA (human) [6], 0.91 µM.

Take `N#Cc1c(N)ncnc1N1CCC[C@H]1c1nc2cccc(C(F)(F)F)c2c(=O)n1-c1cccc(F)c1`: the IC50 on PIK3CD (Human) [1] was found to be 0.038 µM; at PIK3CG (human) [2], 0.718 µM; at PIK3CA (human) [3], 9.95 µM; on PIK3CD (Human) [4], 0.019 µM; at PIK3CG (human) [5], 0.66 µM; on PIK3CA (human) [6] it was 5.6 µM.

With `Nc1nc(N2C[C@@H](F)C[C@H]2c2nc3cccc(C(F)(F)F)c3c(=O)n2-c2cccc(F)c2)c2nc[nH]c2n1`, the IC50 against PIK3CD (Human) [1] stood at 0.05 µM; on PIK3CG (human) [2], 0.071 µM; at PIK3CA (human) [3], 8.25 µM; against PIK3CD (Human) [4] it was 0.026 µM; at PIK3CG (human) [5], 0.038 µM; on PIK3CA (human) [6], 2.5 µM.

Consider `Cc1nc(N)nc(N2C[C@@H](O)C[C@H]2c2nc3ccc(F)c(C)c3c(=O)n2-c2ccccc2)c1C#N`, for which the IC50 on PIK3CD (Human) [1] was 0.007 µM; against PIK3CG (human) [2], 0.018 µM; at PIK3CA (human) [3], 1.09 µM; against PIK3CD (Human) [4], 0.014 µM; against PIK3CG (human) [5], 0.024 µM; against PIK3CA (human) [6] it was 0.27 µM.

Take `CO[C@H]1C[C@@H](c2nc3cccc(C(F)(F)F)c3c(=O)n2-c2ccccc2)N(c2nc(N)nc(C)c2C#N)C1`: the 50% inhibitory concentration (IC50) against PIK3CD (Human) [1] stood at 0.182 µM; at PIK3CG (human) [2], 0.227 µM; on PIK3CD (Human) [4] it was 0.024 µM; on PIK3CG (human) [5], 0.107 µM; on PIK3CA (human) [6], 2.1 µM.

Turning to `CO[C@H]1C[C@@H](c2nc3cccc(C(F)(F)F)c3c(=O)n2-c2ccccc2)N(c2ncnc(N)c2C#N)C1`, the half-maximal inhibitory concentration (IC50) on PIK3CD (Human) [1] turned out to be 0.035 µM; on PIK3CG (human) [2] it was 0.671 µM; at PIK3CD (Human) [4] it was 0.018 µM; against PIK3CG (human) [5] it was 0.46 µM; against PIK3CA (human) [6] it was 7.6 µM.

Regarding `Cc1nc(N)nc(N2CCC[C@H]2c2nc3ccc(F)c(C(F)(F)F)c3c(=O)n2-c2ccccc2)c1C#N`, the IC50 worked out at 0.522 µM at PIK3CG (human) [2], 0.018 µM against PIK3CD (Human) [4], 0.03 µM against PIK3CG (human) [5] and 0.39 µM on PIK3CA (human) [6].

`N#Cc1c(N)ncnc1N1CCC[C@H]1c1nc2ccc(F)c(C(F)(F)F)c2c(=O)n1-c1ccccc1`: the IC50 on PIK3CG (human) [2] came out at 0.211 µM; at PIK3CD (Human) [4], 0.013 µM; against PIK3CG (human) [5], 0.5 µM; against PIK3CA (human) [6], 4.2 µM.

As to `O=c1c2c(Cl)cccc2nc([C@@H]2CCCN2c2ncnc3[nH]cnc23)n1C1CCOCC1`, the IC50 against PIK3CD (Human) [1] is 0.179 µM; against PIK3CA (human) [3], over 10 µM; against PIK3CD (Human) [4] it was 0.059 µM; at PIK3CG (human) [5], 0.295 µM; on PIK3CA (human) [6], 4.55 µM.

Regarding `N#Cc1c(N)ncnc1N1CCC[C@H]1c1nc2cc(F)cc(F)c2c(=O)n1-c1ccccc1`, the IC50 is 0.292 µM against PIK3CD (Human) [1]; over 10 µM against PIK3CA (human) [3]; 0.043 µM against PIK3CD (Human) [4]; over 10 µM against PIK3CG (human) [5]; over 10 µM at PIK3CA (human) [6].

`N#Cc1cnc(N)nc1N1CCC[C@H]1c1nc2cccc(C(F)(F)F)c2c(=O)n1-c1ccccc1`: the IC50 at PIK3CD (Human) [1] is under 0.003 µM; on PIK3CA (human) [3], over 10 µM; on PIK3CD (Human) [4], 0.023 µM; against PIK3CG (human) [5], 0.23 µM; at PIK3CA (human) [6] it was 3.1 µM.

In the case of `COc1ccc(-n2c([C@@H]3CCCN3c3ncnc(N)c3C#N)nc3cccc(Cl)c3c2=O)cn1`, the IC50 is 0.152 µM against PIK3CD (Human) [1]; over 10 µM at PIK3CA (human) [3]; 0.24 µM against PIK3CD (Human) [4]; 0.46 µM against PIK3CG (human) [5]; over 10 µM on PIK3CA (human) [6].

As a reminder, the IC50 is the concentration needed to halve the response being measured. Higher therefore signals a need for much substance.
